Laboratory results taken from ChEMBL document CHEMBL1201861, “Genomics of Drug Sensitity in Cancer screening data, Wellcome Trust Sanger Institute”.

Assays:
[1] = test system: COR-L279; test: SANGER: Inhibition of human COR-L279 cell growth in a cell viability assay.; type: functional, cell-based; conditions: Homo sapiens, COR-L279
[2] = test system: DMS-79; test: cells; type: functional, cell-based, Homo sapiens; conditions: Homo sapiens, DMS-79
Description: SANGER: Inhibition of human DMS-79 cell growth in a cell viability assay.

[3] = test system: GDM-1; test: cells; type: functional, cell-based, Homo sapiens; conditions: Homo sapiens, GDM-1;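 further: cell viability readout used to measure growth inhibition of human GDM-1 cells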
Description: SANGER: Inhibition of human GDM-1 cell growth in a cell viability assay.

[4] = test system: HCC 2998; test: cells; type: functional, cell-based; conditions: Homo sapiens;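 further: growth inhibition of human HCC2998 cells, measured with a cell viability read-out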
Description: SANGER: Inhibition of human HCC2998 cell growth in a cell viability assay.

[5] = test system: LC4-1; test: cells; type: functional, cell-based, Homo sapiens; conditions: Homo sapiens, LC4-1;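 further: growth inhibition of LC4-1 cells, read out with a cell viability assay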
Description: SANGER: Inhibition of human LC4-1 cell growth in a cell viability assay.

[6] = test system: NALM-6; test: cells; type: functional, cell-based, Homo sapiens; conditions: Homo sapiens, NALM-6;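 further: growth inhibition of NALM-6 cells, read out with a cell viability assay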
Description: SANGER: Inhibition of human NALM-6 cell growth in a cell viability assay.

[7] = test system: NCI-H1417; test: cells; type: functional, cell-based, Homo sapiens; conditions: Homo sapiens, NCI-H1417;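 further: human NCI-H1417 cells, growth inhibition determined with a cell viability readout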
Description: SANGER: Inhibition of human NCI-H1417 cell growth in a cell viability assay.

[8] = test system: NCI-H1694; test: cells; type: functional, cell-based, Homo sapiens; conditions: Homo sapiens, NCI-H1694;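 further: cell viability assay measuring inhibition of growth in human NCI-H1694 cells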
Description: SANGER: Inhibition of human NCI-H1694 cell growth in a cell viability assay.

[9] = test system: NCI-H187; test: cells; type: functional, cell-based, Homo sapiens; conditions: Homo sapiens, NCI-H187;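 further: growth inhibition of NCI-H187 cells, read out as cell viability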
Description: SANGER: Inhibition of human NCI-H187 cell growth in a cell viability assay.

[10] = test system: NCI-H1882; test: cells; type: functional, cell-based, Homo sapiens; conditions: Homo sapiens, NCI-H1882;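 further: growth inhibition of the cell line, determined with a viability assay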
Description: SANGER: Inhibition of human NCI-H1882 cell growth in a cell viability assay.

[11] = test system: NCI-H2141; test: cells; type: functional, cell-based, Homo sapiens; conditions: Homo sapiens, NCI-H2141;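 further: growth inhibition of human NCI-H2141 cells, read out with a cell viability assay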
Description: SANGER: Inhibition of human NCI-H2141 cell growth in a cell viability assay.

[12] = test system: OPM-2; test: cells; type: functional, cell-based, Homo sapiens; conditions: Homo sapiens, OPM-2;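 further: growth of OPM-2 cells measured with a viability assay, IC50 for suppression of proliferation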
Description: SANGER: Inhibition of human OPM-2 cell growth in a cell viability assay.

[13] = test system: P31-FUJ; test: cells; type: functional, cell-based, Homo sapiens; conditions: Homo sapiens, P31-FUJ;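 further: growth inhibition of P31-FUJ cells, read out with a viability assay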
Description: SANGER: Inhibition of human P31-FUJ cell growth in a cell viability assay.

[14] = test system: SK-MM-2; test: cells; type: functional, cell-based, Homo sapiens; conditions: Homo sapiens, SK-MM-2;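 further: growth inhibition of human SK-MM-2 cells, read out with a cell viability assay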
Description: SANGER: Inhibition of human SK-MM-2 cell growth in a cell viability assay.

[15] = test system: SNU-C1; test: cells; type: functional, cell-based, Homo sapiens; conditions: Homo sapiens, SNU-C1;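 further: growth inhibition of SNU-C1 human cells, read out by a cell viability assay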
Description: SANGER: Inhibition of human SNU-C1 cell growth in a cell viability assay.

[16] = test system: ST486; test: SANGER: Inhibition of human ST486 cell growth in a cell viability assay.; type: functional, cell-based; conditions: Homo sapiens, ST486
[17] = test system: BC-3; test: cells; type: functional, cell-based, Homo sapiens; conditions: Homo sapiens, BC-3;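 further: cell viability assay measuring growth inhibition of human BC-3 cells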
Description: SANGER: Inhibition of human BC-3 cell growth in a cell viability assay.

[18] = test system: TE-15; test: cells; type: functional, cell-based, Homo sapiens; conditions: Homo sapiens, TE-15;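 further: cell viability readout of growth inhibition in TE-15 cells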
Description: SANGER: Inhibition of human TE-15 cell growth in a cell viability assay.

[19] = test system: UACC-812; test: cells; type: functional, cell-based; conditions: Homo sapiens
Description: SANGER: Inhibition of human UACC-812 cell growth in a cell viability assay.

[20] = test system: YT; test: cells; type: functional, cell-based, Homo sapiens; conditions: Homo sapiens, YT
Description: SANGER: Inhibition of human YT cell growth in a cell viability assay.

[21] = test system: K052; test: cells; type: functional, cell-based, Homo sapiens; conditions: Homo sapiens, K052;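 further: Read-out from a cell viability assay, IC50 reflecting suppression of K052 cell growth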
Description: SANGER: Inhibition of human K052 cell growth in a cell viability assay.

[22] = test system: DBTRG-05MG; test: cells; type: functional, cell-based; conditions: Homo sapiens;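 further: cell viability assay measuring growth inhibition of human DBTRG-05MG cells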
Description: SANGER: Inhibition of human DBTRG-05MG cell growth in a cell viability assay.

[23] = test system: HO-1-N-1; test: cells; type: functional, cell-based; conditions: Homo sapiens;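 further: growth inhibition of human HO-1-N-1 cells, read out with a cell viability assay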
Description: SANGER: Inhibition of human HO-1-N-1 cell growth in a cell viability assay.

[24] = test system: HSC-2; test: cells; type: functional, cell-based; conditions: Homo sapiens;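 further: growth inhibition of human HSC-2 cells, read out by a cell viability assay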
Description: SANGER: Inhibition of human HSC-2 cell growth in a cell viability assay.

[25] = test system: Huh-7; test: cells; type: functional, cell-based; conditions: Homo sapiens;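 further: HuH-7 cell growth inhibition, read out with a cell viability assay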
Description: SANGER: Inhibition of human HuH-7 cell growth in a cell viability assay.

[26] = test system: HuP-T4; test: cells; type: functional, cell-based; conditions: Homo sapiens;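 further: cell viability assay measuring how much HuP-T4 cell growth is inhibited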
Description: SANGER: Inhibition of human HuP-T4 cell growth in a cell viability assay.

[27] = test system: KU-19-19; test: cells; type: functional, cell-based; conditions: Homo sapiens
Description: SANGER: Inhibition of human KU-19-19 cell growth in a cell viability assay.

[28] = test system: KYSE-410; test: cells; type: functional, cell-based; conditions: Homo sapiens;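 further: growth inhibition of KYSE-410 cells, measured through a cell viability readout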
Description: SANGER: Inhibition of human KYSE-410 cell growth in a cell viability assay.

[29] = test system: MDA-MB-231; test: cells; type: functional, cell-based; conditions: Homo sapiens
Description: SANGER: Inhibition of human MDA-MB-231 cell growth in a cell viability assay.

[30] = test system: MKN-7; test: cells; type: functional, cell-based; conditions: Homo sapiens;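 further: growth inhibition of MKN-7 cells, read out with a cell viability assay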
Description: SANGER: Inhibition of human MKN7 cell growth in a cell viability assay.

[31] = test system: MeWo; test: cells; type: functional, cell-based; conditions: Homo sapiens;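 further: growth inhibition of MeWo cells, determined by a cell viability readout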
Description: SANGER: Inhibition of human Mewo cell growth in a cell viability assay.

[32] = test system: NCI-H1437; test: cells; type: functional, cell-based; conditions: Homo sapiens;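 further: growth inhibition of human NCI-H1437 cells, read out by a cell viability assay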
Description: SANGER: Inhibition of human NCI-H1437 cell growth in a cell viability assay.

[33] = test system: NCI-H1755; test: cells; type: functional, cell-based; conditions: Homo sapiens;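 further: cell viability readout used to measure growth inhibition of NCI-H1755 cells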
Description: SANGER: Inhibition of human NCI-H1755 cell growth in a cell viability assay.

[34] = test system: NCI-H522; test: cells; type: functional, cell-based; conditions: Homo sapiens;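 further: cell viability assay measuring growth inhibition of human NCI-H522 cells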
Description: SANGER: Inhibition of human NCI-H522 cell growth in a cell viability assay.

[35] = test system: NUGC-3; test: cells; type: functional, cell-based; conditions: Homo sapiens;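 further: growth inhibition of human NUGC-3 cells, read out with a cell viability assay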
Description: SANGER: Inhibition of human NUGC-3 cell growth in a cell viability assay.

[36] = test system: OAW-28; test: cells; type: functional, cell-based; conditions: Homo sapiens;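 further: growth inhibition of OAW-28 cells, read out with a cell viability assay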
Description: SANGER: Inhibition of human OAW-28 cell growth in a cell viability assay.

[37] = test system: OE19; test: cells; type: functional, cell-based; conditions: Homo sapiens;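 further: growth inhibition of OE19 cells, measured through a cell viability read-out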
Description: SANGER: Inhibition of human OE19 cell growth in a cell viability assay.

[38] = test system: PC-3; test: cells; type: functional, cell-based; conditions: Homo sapiens;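 further: cell viability assay measuring growth inhibition of PC-3 cells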
Description: SANGER: Inhibition of human PC-3 cell growth in a cell viability assay.

[39] = test system: RD; test: cells; type: functional, cell-based; conditions: Homo sapiens
Description: SANGER: Inhibition of human RD cell growth in a cell viability assay.

[40] = test system: RMG-I; test: cells; type: functional, cell-based; conditions: Homo sapiens;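 further: growth inhibition of human RMG-I cells, read out with a cell viability assay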
Description: SANGER: Inhibition of human RMG-I cell growth in a cell viability assay.

[41] = test system: RPMI-2650; test: cells; type: functional, cell-based; conditions: Homo sapiens
Description: SANGER: Inhibition of human RPMI-2650 cell growth in a cell viability assay.

[42] = test system: SK-N-AS; test: cells; type: functional, cell-based; conditions: Homo sapiens;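 further: growth inhibition of human SK-N-AS cells, measured with a cell viability assay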
Description: SANGER: Inhibition of human SK-N-AS cell growth in a cell viability assay.

[43] = test system: SW1417; test: cells; type: functional, cell-based; conditions: Homo sapiens;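 further: growth inhibition of human SW1417 cells, read out with a cell viability assay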
Description: SANGER: Inhibition of human SW1417 cell growth in a cell viability assay.

[44] = test system: SW1990; test: cells; type: functional, cell-based; conditions: Homo sapiens
Description: SANGER: Inhibition of human SW1990 cell growth in a cell viability assay.

[45] = test system: SW626; test: cells; type: functional, cell-based; conditions: Homo sapiens;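 further: growth inhibition of SW626 cells, measured with a cell viability assay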
Description: SANGER: Inhibition of human SW626 cell growth in a cell viability assay.

[46] = test system: SW780; test: cells; type: functional, cell-based; conditions: Homo sapiens;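 further: growth inhibition of the cells, read out with a cell viability assay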
Description: SANGER: Inhibition of human SW780 cell growth in a cell viability assay.

[47] = test system: SW837; test: cells; type: functional, cell-based; conditions: Homo sapiens;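 further: growth inhibition of SW837 cells, determined with a cell viability assay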
Description: SANGER: Inhibition of human SW837 cell growth in a cell viability assay.

[48] = test system: T84; test: cells; type: functional, cell-based; conditions: Homo sapiens;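 further: growth inhibition measured with a cell viability readout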
Description: SANGER: Inhibition of human T84 cell growth in a cell viability assay.

[49] = test system: 769-P; test: cells; type: functional, cell-based; conditions: Homo sapiens
Description: SANGER: Inhibition of human 769-P cell growth in a cell viability assay.

[50] = test system: A2780; test: cells; type: functional, cell-based; conditions: Homo sapiens;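 further: growth inhibition of A2780 cells, read out with a cell viability assay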
Description: SANGER: Inhibition of human A2780 cell growth in a cell viability assay.

[51] = test system: BEN; test: cells; type: functional, cell-based; conditions: Homo sapiens;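 further: growth inhibition of the BEN cell line, read out with a cell viability assay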
Description: SANGER: Inhibition of human BEN cell growth in a cell viability assay.

[52] = test system: BHT-101; test: cells; type: functional, cell-based; conditions: Homo sapiens
Description: SANGER: Inhibition of human BHT-101 cell growth in a cell viability assay.

[53] = test system: BPH-1; test: cells; type: functional, cell-based; conditions: Homo sapiens;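 further: cell viability assay measuring growth inhibition of human BPH-1 cells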
Description: SANGER: Inhibition of human BPH-1 cell growth in a cell viability assay.

[54] = test system: CAL-72; test: cells; type: functional, cell-based; conditions: Homo sapiens;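 further: cell viability assay measuring inhibition of proliferation in the CAL-72 cell line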
Description: SANGER: Inhibition of human CAL-72 cell growth in a cell viability assay.

[55] = test system: TYK-nu; test: cells; type: functional, cell-based; conditions: Homo sapiens;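 further: growth inhibition of human TYK-nu cells, read out by a cell viability assay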
Description: SANGER: Inhibition of human TYK-nu cell growth in a cell viability assay.

[56] = test system: UMC-11; test: cells; type: functional, cell-based; conditions: Homo sapiens;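 further: growth inhibition of UMC-11 cells, read out with a cell viability assay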
Description: SANGER: Inhibition of human UMC-11 cell growth in a cell viability assay.

[57] = test system: WM-115; test: cells; type: functional, cell-based; conditions: Homo sapiens
Description: SANGER: Inhibition of human WM-115 cell growth in a cell viability assay.

[58] = test system: YKG-1; test: cells; type: functional, cell-based; conditions: Homo sapiens;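 further: cell growth inhibition, read out with a viability assay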
Description: SANGER: Inhibition of human YKG-1 cell growth in a cell viability assay.

## CC(C)C[C@H](NC(=O)[C@H](Cc1ccccc1)NC(=O)c1cnccn1)B(O)O [BORTEZOMIB]
[1]
  IC50: > 0.02 µM
[2]
  IC50: > 0.02 µM
[3]; read-out: IC50
  IC50: 0.00677 µM
[4]
  IC50: 0.000412 µM
[5]
  IC50: 0.00179 µM
[6]
  IC50: 0.00449 µM
[7]
  IC50: 0.00551 µM
[8]
  IC50: 0.00758 µM
[9]
  IC50: > 0.02 µM
[10]
  IC50: 0.0012 µM
[11]
  IC50: 0.00405 µM
[12]
  IC50: 0.00133 µM
[13]
  IC50: > 0.02 µM
[14]
  IC50: 0.00109 µM
[15]
  IC50: > 0.02 µM
[16]
  IC50: > 0.02 µM
[17]
  IC50: 0.00661 µM
[18]
  IC50: 0.00343 µM
[19]
  IC50: > 0.02 µM
[20]
  IC50: > 0.02 µM

## C[C@@H](Oc1cc(-c2cnn(C3CCNCC3)c2)cnc1N)c1c(Cl)ccc(F)c1Cl [CRIZOTINIB]
[1]
  IC50: > 2 µM
[2]
  IC50: > 2 µM
[3]; read-out: IC50
  IC50: > 2 µM
[21]
  IC50: > 2 µM
[5]
  IC50: > 2 µM
[6]
  IC50: > 2 µM
[7]
  IC50: > 2 µM
[8]
  IC50: > 2 µM
[9]
  IC50: > 2 µM
[10]
  IC50: > 2 µM
[11]
  IC50: > 2 µM
[12]
  IC50: > 2 µM
[13]
  IC50: > 2 µM
[14]
  IC50: > 2 µM
[15]
  IC50: > 2 µM
[16]
  IC50: > 2 µM
[17]
  IC50: > 2 µM
[18]
  IC50: > 2 µM
[19]
  IC50: > 2 µM
[20]
  IC50: > 2 µM

## CC1(C)CCC(c2ccc(Cl)cc2)=C(CN2CCN(c3ccc(C(=O)NS(=O)(=O)c4ccc(N[C@H](CCN5CCOCC5)CSc5ccccc5)c(S(=O)(=O)C(F)(F)F)c4)cc3)CC2)C1 [NAVITOCLAX]
[22]
  IC50: > 2 µM
[4]
  IC50: 1.07 µM
[23]
  IC50: > 2 µM
[24]
  IC50: > 2 µM
[25]
  IC50: 1.67 µM
[26]
  IC50: > 2 µM
[27]
  IC50: > 2 µM
[28]
  IC50: > 2 µM
[29]
  IC50: > 2 µM
[30]
  IC50: > 2 µM
[31]
  IC50: > 2 µM
[32]
  IC50: > 2 µM
[33]
  IC50: > 2 µM
[34]
  IC50: > 2 µM
[35]
  IC50: > 2 µM
[36]
  IC50: 0.784 µM
[37]
  IC50: > 2 µM
[38]
  IC50: > 2 µM
[39]
  IC50: 0.759 µM
[40]
  IC50: 0.495 µM
[41]
  IC50: > 2 µM
[42]
  IC50: > 2 µM
[43]
  IC50: 0.554 µM
[44]
  IC50: > 2 µM
[45]
  IC50: > 2 µM
[46]
  IC50: > 2 µM
[47]
  IC50: > 2 µM
[48]
  IC50: > 2 µM
[49]
  IC50: > 2 µM
[50]
  IC50: > 2 µM
[51]
  IC50: 0.24 µM
[52]
  IC50: > 2 µM
[53]
  IC50: > 2 µM
[54]
  IC50: > 2 µM
[55]
  IC50: > 2 µM
[56]
  IC50: > 2 µM
[57]
  IC50: 0.277 µM
[58]
  IC50: > 2 µM

## Cc1ccc(NC(=O)c2ccc(CN3CCN(C)CC3)cc2)cc1Nc1nccc(-c2cccnc2)n1 [IMATINIB]
[1]
  IC50: > 2 µM
[2]
  IC50: > 2 µM
[3]
  IC50: > 2 µM
[21]
  IC50: > 2 µM
[5]
  IC50: > 2 µM
[6]
  IC50: > 2 µM
[7]
  IC50: > 2 µM
[8]
  IC50: > 2 µM
[9]
  IC50: > 2 µM
[10]
  IC50: > 2 µM
[11]
  IC50: > 2 µM
[12]
  IC50: > 2 µM
[13]
  IC50: > 2 µM
[14]
  IC50: > 2 µM
[15]
  IC50: > 2 µM
[16]
  IC50: 0.685 µM
[17]
  IC50: > 2 µM
[18]
  IC50: > 2 µM
[19]
  IC50: > 2 µM
[20]
  IC50: > 2 µM
